Laboratory results as given in ChEMBL document CHEMBL3045267, “Aromatic-ring-functionalised benzoxazinones in the system Oryza sativa-Echinochloa crus-galli as biorational herbicide models” (Pest Manag Sci, 2009).
pIC50: −log10 of the molar value.

Tests used:
[1] = tested on: Echinochloa crus-galli; test: Herbicidal activity against Echinochloa crus-galli (barnyard grass) assessed as inhibition of root length after 5 days at 25 degC; format: functional, organism-based; conditions: 120 h
[2] = tested on: Oryza sativa; test: Phytotoxicity against Oryza sativa (rice) assessed as inhibition of root length after 7 days at 25 degC; format: organism-based; conditions: 168 h
[3] = Phytotoxicity against Oryza sativa (rice) assessed as inhibition of root length at 64 uM after 7 days at 25 degC; format: organism-based; conditions: whole organism (rice plants, root growth)
[4] = tested on: Echinochloa crus-galli; test: Herbicidal activity against Echinochloa crus-galli (barnyard grass) assessed as inhibition of root length at 64 uM after 5 days at 25 degC; format: functional; conditions: 120 h

SMILES	pIC50 [1]	pIC50 [2]	inhibition at 168 h, 64 µM [3]	inhibition at 64 µM [4]
O=C1COc2ccccc2N1O	3.44	–	–	–
CCC(=O)Nc1ccc(Cl)c(Cl)c1 [PROPANIL]	–	3.67	–	–
COc1ccc2c(c1)N(O)C(=O)CO2 [6-MeO-D-DIBOA]	3.80	–	–	–
COC(=O)c1ccc2c(c1)OCC(=O)N2O [7-MeOCO-D-DIBOA]	2.78	–	–	–
COc1ccc2c(c1)OCC(=O)N2O	3.09	–	–	–
O=C1COc2ccc(F)cc2N1O [6-F-D-DIBOA]	5.55	5.05	–	–
O=C1COc2cc(F)ccc2N1O [7-F-D-DIBOA]	3.89	3.77	–	–
O=C1COc2c(ccc(F)c2F)N1O [7,8-diF-D-DIBOA]	4.28	3.80	–	–
COc1ccc2c(c1OC)OCC(=O)N2O [7,8-diMeO-D-DIBOA]	3.16	–	–	–
O=C1COc2ccc(Cl)cc2N1O [6-Cl-D-DIBOA]	5.10	5.52	–	–
O=C1COc2c(F)cccc2N1O [8-F-D-DIBOA]	4.16	3.73	–	–
COC(=O)c1ccc2c(c1)N(O)C(=O)CO2 [6-MeOCO-D-DIBOA]	3.64	–	–	–
O=C1COc2c(Cl)cc(Cl)cc2N1O [6,8-diCl-D-DIBOA]	3.55	2.48	–	–
O=C1COc2c(Cl)cccc2N1O [8-Cl-D-DIBOA]	4.36	3.30	10%	60%
O=C1COc2ccc(C(F)(F)F)cc2N1O [6-CF3-D-DIBOA]	3.80	3.58	–	–
